Experimental data taken from PubChem BioAssay AID248 (DTP/NCI, 2004).
Several values for one entry are separate records, joined by “and”; a condition that tells them apart may be missing. Equal entries are not always repeated. Toxic doses and inconclusive results are not listed. No stated cut-off is given here; in the data, active means T/C of 150% or more; inactive means T/C below 125%.

System: L1210 leukemia ip in BDF1 mice, survival T/C
Experiment: NCI In Vivo Anticancer Drug Screen. Data for tumor model L1210 Leukemia (intraperitoneal) in B6D2F1 (BDF1) mice
Conditions: endpoint: mean survival time, higher = longer survival
Procedure, shortened: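 In this screen, tumor-bearing mice given compound are compared to those given vehicle, and their survival values are reported as a treated-to-control quotient.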

[1] = dose: 100.0 mg/kg/injection, schedule: Q01DX001 (ip), vehicle: Klucel (hydroxypropylcellulose) (HPC)
[2] = dose: 200.0 mg/kg/injection, schedule: Q01DX001 (ip), vehicle: Klucel (hydroxypropylcellulose) (HPC)
[3] = dose: 400.0 mg/kg/injection, schedule: Q01DX001 (ip), vehicle: Klucel (hydroxypropylcellulose) (HPC)
[4] = dose: 100.0 mg/kg/injection, schedule: Q01DX009 (ip), vehicle: Klucel (hydroxypropylcellulose) (HPC)
[5] = dose: 100.0 mg/kg/injection, schedule: Q04DX003 (ip), vehicle: Klucel (hydroxypropylcellulose) (HPC)
[6] = dose: 200.0 mg/kg/injection, schedule: Q01DX009 (ip), vehicle: Klucel (hydroxypropylcellulose) (HPC)
[7] = dose: 200.0 mg/kg/injection, schedule: Q04DX003 (ip), vehicle: Klucel (hydroxypropylcellulose) (HPC)
[8] = dose: 400.0 mg/kg/injection, schedule: Q01DX009 (ip), vehicle: Klucel (hydroxypropylcellulose) (HPC)
[9] = dose: 400.0 mg/kg/injection, schedule: Q04DX003 (ip), vehicle: Klucel (hydroxypropylcellulose) (HPC)
[10] = dose: 100.0 mg/kg/injection, schedule: Q01DX009 (ip), vehicle: saline with Tween-80
[11] = dose: 100.0 mg/kg/injection, schedule: Q04DX003 (ip), vehicle: saline with Tween-80
[12] = dose: 200.0 mg/kg/injection, schedule: Q01DX009 (ip), vehicle: saline with Tween-80
[13] = dose: 200.0 mg/kg/injection, schedule: Q04DX003 (ip), vehicle: saline with Tween-80
[14] = dose: 400.0 mg/kg/injection, schedule: Q01DX009 (ip), vehicle: saline with Tween-80
[15] = dose: 400.0 mg/kg/injection, schedule: Q04DX003 (ip), vehicle: saline with Tween-80
[16] = dose: 100.0 mg/kg/injection, schedule: Q01DX001 (ip), vehicle: saline
[17] = dose: 200.0 mg/kg/injection, schedule: Q01DX001 (ip), vehicle: saline
[18] = dose: 400.0 mg/kg/injection, schedule: Q01DX001 (ip), vehicle: saline

Measured: T/C

COC(=O)C1CC(=O)c2ccc(OC)cc21 (stereo not given)
inactive: [1] 102 % of control | [2] 92 % of control | [3] 100 % of control

Cc1cccc2c1NC(C)C2C (stereo not given)
inactive: dose: 100.0 mg/kg/injection, schedule: Q01DX009 (ip), vehicle: saline 102 % of control | dose: 100.0 mg/kg/injection, schedule: Q04DX003 (ip), vehicle: saline 96 % of control | dose: 200.0 mg/kg/injection, schedule: Q01DX009 (ip), vehicle: saline 98 % of control | dose: 200.0 mg/kg/injection, schedule: Q04DX003 (ip), vehicle: saline 93 % of control | dose: 400.0 mg/kg/injection, schedule: Q01DX009 (ip), vehicle: saline 98 % of control | dose: 400.0 mg/kg/injection, schedule: Q04DX003 (ip), vehicle: saline 93 % of control

CC(C)=CCC(/C=N/N=C(N)N)C(C)C (stereo not given)
inactive: dose: 3.0 mg/kg/injection, schedule: Q01DX Z (ip), vehicle: saline 96 % of control | dose: 7.0 mg/kg/injection, schedule: Q01DX Z (ip), vehicle: saline 105 % of control | dose: 15.0 mg/kg/injection, schedule: Q01DX Z (ip), vehicle: saline 91 % of control | dose: 15.0 mg/kg/injection, schedule: Q01DX Z (oral), vehicle: saline 104 % of control | dose: 30.0 mg/kg/injection, schedule: Q01DX Z (ip), vehicle: saline 94 % of control | dose: 30.0 mg/kg/injection, schedule: Q01DX Z (oral), vehicle: saline 101 % of control | dose: 60.0 mg/kg/injection, schedule: Q01DX Z (oral), vehicle: saline 87 % of control

Cc1ncc(C(O)c2ccc(N(C)C)cc2)n1Cc1ccccc1 (stereo not given)
inactive: [1] 95 % of control | [4] 100 % of control and 104 % of control | dose: 100.0 mg/kg/injection, schedule: Q04DX002 (ip), vehicle: Klucel (hydroxypropylcellulose) (HPC) 111 % of control | [5] 103 % of control | [2] 95 % of control | [6] 103 % of control and 115 % of control | dose: 200.0 mg/kg/injection, schedule: Q04DX002 (ip), vehicle: Klucel (hydroxypropylcellulose) (HPC) 94 % of control and 115 % of control | [7] 105 % of control | [3] 89 % of control | [8] 88 % of control | dose: 400.0 mg/kg/injection, schedule: Q04DX002 (ip), vehicle: Klucel (hydroxypropylcellulose) (HPC) 98 % of control and 99 % of control | [9] 103 % of control

CC(=O)OS(C)(=O)=O
inactive: dose: 50.0 mg/kg/injection, schedule: Q01DX009 (ip), vehicle: Klucel (hydroxypropylcellulose) (HPC) 100 % of control | [4] 100 % of control | [5] 105 % of control

Nc1ccc2nc(NCCO)c3ccccc3c2c1
inactive: [4] 107 % of control | [5] 104 % of control | [6] 114 % of control | [7] 104 % of control | [8] 88 % of control | [9] 104 % of control

CC1(C)C(=O)C2(C(=O)O)CCC1C2 (stereo not given)
inactive: [10] 93 % of control | [11] 101 % of control | [12] 98 % of control | [13] 101 % of control | [14] 96 % of control | [15] 88 % of control

COC(=O)C1C2C(C)=CC(O)(CC2(C)C)C1C(=O)OC (stereo not given)
inactive: [16] 95 % of control | [17] 95 % of control | [18] 101 % of control

O=C1OC(Cl)(C(Cl)(Cl)Cl)C(=O)OC1(Cl)C(Cl)(Cl)Cl (stereo not given)
inactive: dose: 100.0 mg/kg/injection, schedule: Q04DX003 (ip), vehicle: acetone 98 % of control | dose: 200.0 mg/kg/injection, schedule: Q04DX003 (ip), vehicle: acetone 98 % of control | dose: 400.0 mg/kg/injection, schedule: Q04DX003 (ip), vehicle: acetone 96 % of control

O=C(Nc1cccc([N+](=O)[O-])c1)c1ccc2c(c1)C(=O)OC2=O
inactive: [10] 95 % of control | [12] 87 % of control | [14] 93 % of control

COc1ccc2c(c1)C(=O)CCN2
inactive: [4] 100 % of control | [5] 102 % of control | [6] 95 % of control | [7] 104 % of control | [9] 93 % of control

Cc1cccc(C)c1NC(=O)Nc1ccc(C(=O)O)cc1
inactive: [4] 101 % of control | [6] 108 % of control | [8] 103 % of control

CCOC(=O)c1cnn2c(SC)ncnc12
inactive: dose: 25.0 mg/kg/injection, schedule: Q04DX003 (ip), vehicle: saline with Tween-80 102 % of control | dose: 50.0 mg/kg/injection, schedule: Q01DX009 (ip), vehicle: saline with Tween-80 102 % of control | dose: 50.0 mg/kg/injection, schedule: Q04DX003 (ip), vehicle: saline with Tween-80 104 % of control | [10] 91 % of control | [11] 107 % of control

CC1(C)OC2OC(CO)C(O)C(O)C2O1 (stereo not given)
inactive: dose: 100.0 mg/kg/injection, schedule: Q04DX002 (ip), vehicle: saline 94 % of control | dose: 200.0 mg/kg/injection, schedule: Q04DX002 (ip), vehicle: saline 94 % of control | dose: 400.0 mg/kg/injection, schedule: Q04DX002 (ip), vehicle: saline 94 % of control

CC(=O)Nc1ccc(NC(=O)NCCCCCCNC(=O)Nc2ccc(NC(C)=O)cc2)cc1
inactive: [4] 102 % of control | [6] 98 % of control | [8] 100 % of control

O=c1[nH]cnc2nc(SCc3ccccc3NCBr)[nH]c12
inactive: dose: 31.3 mg/kg/injection, schedule: Q04DX002 (ip), vehicle: Klucel (hydroxypropylcellulose) (HPC) 91 % of control | dose: 62.5 mg/kg/injection, schedule: Q04DX002 (ip), vehicle: Klucel (hydroxypropylcellulose) (HPC) 91 % of control | dose: 125.0 mg/kg/injection, schedule: Q04DX002 (ip), vehicle: Klucel (hydroxypropylcellulose) (HPC) 88 % of control

O=C1C2(Cl)C3(Cl)C4(OCCO4)C4(Cl)C2(Cl)C2(Cl)C1(Cl)C3(Cl)C42Cl (stereo not given)
inactive: dose: 50.0 mg/kg/injection, schedule: Q01DX001 (ip), vehicle: saline 100 % of control | [16] 100 % of control | [17] 105 % of control | [18] 96 % of control

CCCc1cc(C)cc2nc(-c3ccccc3)oc12
inactive: [11] 101 % of control | [13] 95 % of control | [15] 89 % of control

Cc1ccc(C(=O)[O][Hg][CH2]C2COC([CH2][Hg][O]C(=O)c3ccc(C)cc3)CO2)cc1 (stereo not given)
inactive: dose: 3.12 mg/kg/injection, schedule: Q01DX009 (ip), vehicle: Klucel (hydroxypropylcellulose) (HPC) 93 % of control | dose: 6.25 mg/kg/injection, schedule: Q01DX009 (ip), vehicle: Klucel (hydroxypropylcellulose) (HPC) 93 % of control | dose: 6.25 mg/kg/injection, schedule: Q01DX009 (ip), vehicle: saline with Tween-80 113 % of control | dose: 12.5 mg/kg/injection, schedule: Q01DX009 (ip), vehicle: Klucel (hydroxypropylcellulose) (HPC) 94 % of control | dose: 12.5 mg/kg/injection, schedule: Q01DX009 (ip), vehicle: saline with Tween-80 100 % of control | dose: 25.0 mg/kg/injection, schedule: Q01DX009 (ip), vehicle: saline with Tween-80 105 % of control | dose: 25.0 mg/kg/injection, schedule: Q04DX003 (ip), vehicle: other 92 % of control | dose: 50.0 mg/kg/injection, schedule: Q04DX003 (ip), vehicle: other 90 % of control | dose: 100.0 mg/kg/injection, schedule: Q04DX003 (ip), vehicle: other 95 % of control
